Results as given in article PMC5590075, “Synthesis, Antimicrobial, and Antioxidant Activities of Chalcogen-Containing Nitrone Derivatives from (R)-citronellal” (Medicines, 2017).
Converted amounts (≈) assume the structure as drawn. Where two headings read alike, the source gives them in different places.

What was measured:
DPPH radical scavenging = conditions: for DPPH radical scavenging activity (in words): 10–500 μM tested; for DPPH radical scavenging, percentage of inhibition in relation to control: mean ± SD (n = 3)
Protocol: (§1) The antioxidant properties of the synthesized compounds (5a–d and 10) were evaluated by three different methods in vitro: DPPH (1,1-diphenyl-2-picryl-hydrazyl) and ABTS^+ (2,2′-azino-bis(3-ethylbenzthiazoline-6-sulfonic acid) radical scavenging ability and ferric ion reducing antioxidant power (FRAP). All drugs were dissolved in dimethyl sulfoxide (DMSO) at concentrations of 1–500 µM. These assays were performed according to the literature and details of these experiments are described elsewhere (see the ‘Results and Discussion’ section for the references). […]
(§2) 2.3. Antioxidant activity assays
(§3) The antioxidant properties of the synthesized compounds were evaluated by three different methods in vitro: DPPH and ABTS+ radical scavenging activity and ferric ion reducing antioxidant power (FRAP). All drugs were dissolved in dimethyl sulfoxide (DMSO). The experimental results were given as the means ± standard deviation (SD) to show the variations among the groups. The statistical analysis was performed using one‐way analysis of variance (ANOVA) followed by Newman‐Keuls multiple comparison test when appropriate. The differences were considered statistically significant at a probability of less than 5% (p < 0.05). All tests were performed at least three times in duplicate. The IC50 values (the concentration of sample required to scavenge 50% of the free radicals) were calculated from the graph of the scavenging effect percentage versus the […]
(§4) 2.4. Radical Scavenging Activity
To determine if compounds 5a–d and 10 present in vitro antioxidant activity against free radicals, DPPH and ABTS+ scavenging capability were evaluated at different concentrations.
The DPPH scavenging activity of compounds 5a–d and 10 (10–500 μM) was determined in accordance with the method of Sharma and Bhat and the decrease in the absorbance at 517 nm […]
(§5) The ABTS radical scavenging activity was determined according to the method described by Erel. Different concentrations of compounds 5a–d and 10 (10–500 μ M) were mixed with the ABTS+ solution, and the decrease in the absorbance at 734 nm was recorded. […]
(§6) values, as calculated by the following equation:
I% = [(Ac−As/Ac) × 100] (1) […]

ABTS radical scavenging = conditions: mean ± SD (n = 3); for IC50: read-out: ABTS radical scavenging IC50 (concentration compound required for 50% scavenging)
Protocol: as §1, §2, §3, §4
To determine if compounds 5a–d and 10 present in vitro antioxidant activity against free radicals, DPPH and ABTS+ scavenging capability were evaluated at different concentrations. […]
as §5, §6
I% = [(Ac−As/Ac) × 100] (1)
3. Ferric ion reducing antioxidant power (FRAP) […]
reducing capacity of compounds 5a–d and 10.
[8] with slight modifications.
They were homogenized in a 0.1 M
The supernatants were used for determination of the δ‐ALAD activity. […]
and 500 μL of distilled water. […]
and the absorbance was read at 555 nm.

[1] = system: Escherichia coli O157: H7 NCTC 12900; test: MIC and MBC, macro dilution tube method; type: cell-based; conditions: for MIC: E. coli O157:H7, 10^5 CFU.mL^−1, 24 h
From the text: (§7) To evaluate the antimicrobial potential of the synthesized compounds, the following reference strains of bacteria, that are economically important in foods, were employed: Gram-positive Listeria monocytogenes ATCC 7644, Staphylococcus aureus ATCC 25923, and Bacillus cereus ATCC 11778; Gram-negative Salmonella Typhimurium ATCC 14028, Escherichia coli O157: H7 NCTC 12900 and the clinically important Pseudomonas aeruginosa ATCC 15442.
(§8) The antimicrobial activity assay using the disk diffusion test was realized using the methodology that is recommended by the Clinical Laboratory Standards Institute (CLSI). The determination of the minimum inhibitory concentration (MIC) and minimum bactericidal concentration (MBC) was performed using the macro dilution tube method, in accordance with Rota et al., with modifications. Details of these assays are provided in the Supplemental Material. […]
(§9) 2.2. Determination of the minimum inhibitory concentration (MIC) and minimum bactericidal concentration
(§10) The MIC was determined using the macro dilution tube method, in accordance with Rota et al.
(§11) [5], with modifications. The tested concentrations were 20, 18, 15, 12, 10, 7 and 5 μL.mL‐1 of each compound. In a tube with 1 mL of MH broth, was inoculated 105 UFC.mL‐1, the compound in a predetermined concentration and, to facilitate the solubility, 2 drops of TWEEN 80. The mixture was incubated at 37 °C for 24 h under stirring (150 rpm). As the positive control, MH broth and inoculum concentration in 105 UFC.mL‐1 and as the negative control MH, the inoculum concentration in 105 UFC∙mL‐1 and streptomycin (10 μg) were used. MIC was defined as the lowest concentration of […]
(§12) After 24 h, tubes with no visible growth were seeded in a […] TSA‐YE tube and incubated at 37 °C for 24 h. The MBC is the lowest concentration of compound where 99.9% of the initially inoculated cells were killed. […]
(§13) 2.4. Radical Scavenging Activity […]
(§14) The ABTS radical scavenging activity was determined according to the method described by Erel. Different concentrations of compounds 5a–d and 10 (10–500 μ M) were mixed with the ABTS+ solution, and the decrease in the absorbance at 734 nm was recorded.

[2] = system: Staphylococcus aureus ATCC 25923; test: MIC and MBC, macro dilution tube method; type: cell-based; conditions: S. mureus (so in the source); for MIC: 10^5 CFU.mL^−1, 24 h; for MBC: 10^5 CFU.mL^−1
From the text: as §7, §8, §9, §10, §11, §12, §13, §14

[3] = system: Listeria monocytogenes ATCC 7644; test: MIC and MBC, macro dilution tube method; type: cell-based; conditions: L. monocytogenes; for MIC: 10^5 CFU.mL^−1, 24 h; for MBC: 10^5 CFU.mL^−1
From the text: as §7, §8, §9, §10, §11, §12, §13, §14

[4] = system: Bacillus cereus ATCC 11778; test: MIC and MBC, macro dilution tube method; type: cell-based
From the text: as §7, §8, §9, §10, §11, §12, §13, §14

[5] = E. coli O157:H7, 10^5 CFU.mL^−1
[6] = B. mereus (so in the source), 10^5 CFU.mL^−1
[7] = B. mereus (so in the source), 10^5 CFU.mL^−1, 24 h

With `CC(C)=CCCC(C)C/C=[N+](\C)[O-]` (stereo not drawn) [5d, (E)-N,3,7-trimethyloct-6-en-1-imine oxide] the “DPPH radical scavenging activity (in words)” value (DPPH radical scavenging) was “did not present effect”, the “ABTS radical scavenging, percentage of inhibition in relation to control” value (ABTS radical scavenging; 50 μM) was 0.30 ± 0.33% and the “ABTS radical scavenging, percentage of inhibition in relation to control” value (ABTS radical scavenging; 100 μM) was 3.10 ± 0.48 %. For the same compound, the “ABTS radical scavenging, percentage of inhibition in relation to control” value (ABTS radical scavenging; 500 μM) was 17.05 ± 0.47 %, the MBC [1, 5] was 1.26 mM.mL^−1 and the MIC [1] was 1.13 mM.mL^−1. The MIC [2] was 1.26 mM.mL^−1, the MIC [3] was 1.26 mM.mL^−1 and the MBC [4, 6] was >1.26 mM.mL^−1. The MIC [4, 7] was >1.26 mM.mL^−1.
With `CC(C)=CCC[C@@H](C)C(/C=N/O)[Se]c1ccccc1` (stereo partly drawn) [compound 10, (3R,E)-3,7-dimethyl-2-(phenylselanyl)oct-6-enal oxime] the “DPPH radical scavenging activity (in words)” value (DPPH radical scavenging) was “did not present effect”, the “ABTS radical scavenging, percentage of inhibition in relation to control” value (ABTS radical scavenging; 5 μM) was 2.39 ± 0.57% and the “ABTS radical scavenging, percentage of inhibition in relation to control” value (ABTS radical scavenging; 10 μM) was 27.81 ± 2.12 %. The “ABTS radical scavenging, percentage of inhibition in relation to control” value (ABTS radical scavenging; 50 μM) was 87.59 ± 4.81 %, the “ABTS radical scavenging, percentage of inhibition in relation to control” value (ABTS radical scavenging; 100 μM) was 94.03 ± 1.05 % and the IC50 (ABTS radical scavenging) was 25 ± 2 µM. For the same compound, the MBC [1, 5] was >0.70 mM.mL^−1, the MIC [1] was >0.70 mM.mL^−1 and the MBC [2] was >0.70 mM.mL^−1. The MIC [2] was >0.70 mM.mL^−1, the MBC [3] was >0.70 mM.mL^−1 and the MIC [3] was >0.70 mM.mL^−1. The MBC [4, 6] was >0.70 mM.mL^−1 and the MIC [4, 7] was >0.70 mM.mL^−1.
For `CC(C)=CCCC(C)(C/C=[N+](\C)[O-])Sc1ccccc1` (stereo not drawn) [5c, (E)-N,3,7-trimethyl-3-(phenylthio)oct-6-en-1-imine oxide], the “DPPH radical scavenging, percentage of inhibition in relation to control” value (DPPH radical scavenging; 100 μM) was 2.43 ± 0.61%, the “DPPH radical scavenging, percentage of inhibition in relation to control” value (DPPH radical scavenging; 500 μM) was 29.34 ± 1.00 % and the “DPPH radical scavenging activity (in words)” value (DPPH radical scavenging) was “demonstrated DPPH radical scavenging activity”. For the same compound, the “ABTS radical scavenging, percentage of inhibition in relation to control” value (ABTS radical scavenging; 50 μM) was 4.18 ± 1.23%, the “ABTS radical scavenging, percentage of inhibition in relation to control” value (ABTS radical scavenging; 100 μM) was 11.60 ± 1.50 % and the “ABTS radical scavenging, percentage of inhibition in relation to control” value (ABTS radical scavenging; 500 μM) was 59.51 ± 4.16 %. The IC50 (ABTS radical scavenging) was 419 ± 35.8 µM, the MBC [1, 5] was 0.52 mM.mL^−1 and the MIC [1] was 0.52 mM.mL^−1. The MBC ([1]; Escherichia coli, NCTC12900, read-out: minimal bactericidal concentration (MBC)) was 520 µM (≈ 152 µg/mL), the MBC [2] was 0.69 mM.mL^−1 and the MIC [2] was 0.61 mM.mL^−1. For the same compound, the MBC [3] was >0.69 mM.mL^−1, the MBC [4, 6] was 0.69 mM.mL^−1 and the MIC [4, 7] was 0.69 mM.mL^−1.
For `CC(C)=CCCC(C)C(/C=[N+](\C)[O-])Sc1ccccc1` (stereo not drawn) [5a, (E)-N,3,7-Trimethyl-2-(phenylthio)oct-6-en-1-imine oxide], the “DPPH radical scavenging, percentage of inhibition in relation to control” value (DPPH radical scavenging; 100 μM) was 2.43 ± 1.08%, the “DPPH radical scavenging, percentage of inhibition in relation to control” value (DPPH radical scavenging; 500 μM) was 20.31 ± 1.26 % and the “DPPH radical scavenging activity (in words)” value (DPPH radical scavenging) was “demonstrated DPPH radical scavenging activity”. For the same compound, the “ABTS radical scavenging, percentage of inhibition in relation to control” value (ABTS radical scavenging; 50 μM) was 11.74 ± 0.47 %, the “ABTS radical scavenging, percentage of inhibition in relation to control” value (ABTS radical scavenging; 100 μM) was 22.84 ± 1.02 % and the “ABTS radical scavenging, percentage of inhibition in relation to control” value (ABTS radical scavenging; 500 μM) was 77.61 ± 0.81 %. For the same compound, the IC50 (ABTS radical scavenging) was 297 ± 1 µM, the MBC [1, 5] was >0.65 mM.mL^−1 and the MIC [1] was >0.65 mM.mL^−1. For the same compound, the MBC [2] was >0.65 mM.mL^−1, the MIC [2] was >0.65 mM.mL^−1 and the MBC [4, 6] was 0.59 mM.mL^−1. It also gave an MIC [4, 7] of 0.48 mM.mL^−1, an MBC ([4]; Bacillus cereus, ATCC11778) of 590 µM (≈ 172 µg/mL) and an MIC ([4]; Bacillus cereus, ATCC11778, read-out: minimal inhibitory concentration (MIC)) of 480 µM (≈ 140 µg/mL).
